Laboratory results from ChEMBL document CHEMBL5137099, “Discovery of Novel cccDNA Reducers toward the Cure of Hepatitis B Virus Infection” (J Med Chem, 2022).
Activity calls are given as the source filed them. The rule behind the calls is not given here.

Legend:
[1] = Tmax in C3H/J mouse at 5 mg/kg, po by LC-MS/MS analysis; format: ADME, organism-based; conditions: in vivo
[2] = Dose normalized AUC (0 to 24 hrs) in C3H/J mouse at 100 mg/kg, po by LC-MS/MS analysis; format: ADME, organism-based; conditions: in vivo
[3] = Dose normalized Cmax in C3H/J mouse at 300 mg/kg, po by LC-MS/MS analysis; format: ADME, organism-based; conditions: in vivo
[4] = Half life in C3H/J mouse at 20 mg/kg, po by LC-MS/MS analysis; format: ADME, organism-based; conditions: in vivo
[5] = Toxicity in C3H/J mouse assessed as tolerability at 100 to 300 mg/kg BID for 5 days; format: organism-based; conditions: in vivo, 120 h, dose 100-300 mg/kg, time 5 day
[6] = Half life in C3H/J mouse at 100 mg/kg, po by LC-MS/MS analysis; format: ADME, organism-based; conditions: in vivo
[7] = Metabolic stability in mouse hepatocytes assessed as intrinsic clearance; format: ADME, cell-based, Hepatocyte; conditions: read-out: CLH
[8] = fCaverage in HBVcircle mouse model at 100 mg/kg BID; format: ADME, organism-based; conditions: in vivo
[9] = test system: Hepatitis B virus; experiment: Antiviral activity against HBV infected in human HepG2 cells assessed as reduction in HBeAg secretion incubated for 5 days by counter screen assay; format: functional, organism-based; conditions: HepG2, 120 h
[10] = fCaverage in HBVcircle mouse model at 100 mg/kg QD; format: ADME, organism-based; conditions: in vivo
[11] = Aqueous solubility of the compound; format: physicochemical; conditions: buffer
[12] = Cmax in C3H/J mouse plasma at 5 mg/kg, po by LC-MS/MS analysis; format: ADME, organism-based; set-up: dose 5 mg/kg, route po
[13] = Dose normalized AUC (0 to 12 hrs) in C3H/J mouse at 300 mg/kg, po by LC-MS/MS analysis; format: ADME, organism-based; conditions: in vivo
[14] = Dose normalized Cmax in C3H/J mouse at 5 mg/kg, po by LC-MS/MS analysis; format: ADME, organism-based; conditions: in vivo
[15] = fCmax in HBVcircle mouse model at 300 mg/kg BID; format: ADME, organism-based; conditions: in vivo
[16] = Cmax in C3H/J mouse plasma at 300 mg/kg, po by LC-MS/MS analysis; format: ADME, organism-based; set-up: dose 300 mg/kg, route po
[17] = fCmax in HBVcircle mouse model at 100 mg/kg QD; format: ADME, organism-based; conditions: in vivo
[18] = AUC (0 to infinity) in C3H/J mouse at 100 mg/kg, po by LC-MS/MS analysis; format: ADME, organism-based; set-up: time infinity, dose 100 mg/kg, route po; conditions: in vivo
[19] = fCmin in HBVcircle mouse model at 300 mg/kg BID; format: ADME, organism-based; conditions: in vivo
[20] = AUC (0 to infinity) in C3H/J mouse at 20 mg/kg, po by LC-MS/MS analysis; format: ADME, organism-based; set-up: time infinity, dose 20 mg/kg, route po; conditions: in vivo
[21] = test system: Hepatitis B virus; experiment: Antiviral activity against HBV infected HBVcircle mouse model assessed as reduction in cccDNA levels in mouse liver at 300 mg/kg, po bid treated for 3 weeks and measured up to 56 days by qPCR analysis; format: functional, organism-based
[22] = fCmax in HBVcircle mouse model at 100 mg/kg BID; format: ADME, organism-based; conditions: in vivo
[23] = fCmin in HBVcircle mouse model at 100 mg/kg BID; format: ADME, organism-based; conditions: in vivo
[24] = Dose normalized Cmax in C3H/J mouse at 100 mg/kg, po by LC-MS/MS analysis; format: ADME, organism-based; conditions: in vivo
[25] = test system: Hepatitis B virus; experiment: Antiviral activity against HBV infected HBVcircle mouse model assessed as reduction in HBeAg levels in mouse serum at 300 mg/kg, po bid treated for 3 weeks and measured up to 56 days; format: functional, organism-based
[26] = Tmax in C3H/J mouse at 300 mg/kg, po by LC-MS/MS analysis; format: ADME, organism-based; conditions: in vivo
[27] = Dose normalized AUC (0 to 24 hrs) in C3H/J mouse at 20 mg/kg, po by LC-MS/MS analysis; format: ADME, organism-based; conditions: in vivo
[28] = Octanol-aqueous buffer distribution coefficient, log D of the compound at pH 7.4 by CAMDIS assay; format: physicochemical
[29] = Dose normalized Cmax in C3H/J mouse at 20 mg/kg, po by LC-MS/MS analysis; format: ADME, organism-based; conditions: in vivo
[30] = fCaverage in HBVcircle mouse model at 300 mg/kg BID; format: ADME, organism-based; conditions: in vivo
[31] = test system: Hepatitis B virus; experiment: Antiviral activity against HBV infected in human HepDES19 cells assessed as reduction in HBV cccDNA production by measuring inhibition of HBeAg secretion incubated for 5 days by ELISA; format: functional, organism-based; conditions: HepDES19, 120 h
[32] = Dose normalized AUC (0 to 24 hrs) in C57BL/6 mouse at 5 mg/kg, po by LC-MS/MS analysis; format: ADME, organism-based; conditions: in vivo
[33] = Permeability of the compound by PAMPA analysis; format: ADME; conditions: read-out: permeability
[34] = test system: Hepatitis B virus; experiment: Antiviral activity against HBV infected in human primary hepatocyte cells assessed as reduction in HBV cccDNA production by measuring inhibition of HBsAg secretion measured after 48 hrs by ELISA; format: functional, organism-based
[35] = AUC (0 to infinity) in C3H/J mouse at 5 mg/kg, po by LC-MS/MS analysis; format: ADME, organism-based; set-up: time infinity, dose 5 mg/kg, route po; conditions: in vivo
[36] = Cmax in C3H/J mouse plasma at 100 mg/kg, po by LC-MS/MS analysis; format: ADME, organism-based; set-up: dose 100 mg/kg, route po
[37] = test system: Hepatitis B virus; experiment: Antiviral activity against HBV infected in human HepDES19 cells assessed as reduction in HBV cccDNA production by measuring inhibition of HBeAg secretion at 0.3 to 30 uM by southern blot analysis; format: functional, organism-based; conditions: dose 0.3-30 µM
[38] = Tmax in C3H/J mouse at 20 mg/kg, po by LC-MS/MS analysis; format: ADME, organism-based; conditions: in vivo
[39] = Tmax in C3H/J mouse at 100 mg/kg, po by LC-MS/MS analysis; format: ADME, organism-based; conditions: in vivo
[40] = fCmin in HBVcircle mouse model at 100 mg/kg QD; format: ADME, organism-based; conditions: in vivo
[41] = Cmax in C3H/J mouse plasma at 20 mg/kg, po by LC-MS/MS analysis; format: ADME, organism-based; set-up: dose 20 mg/kg, route po
[42] = Half life in C3H/J mouse at 5 mg/kg, po by LC-MS/MS analysis; format: ADME, organism-based; conditions: in vivo
[43] = test system: Hepatitis B virus; experiment: Antiviral activity against HBV infected HBVcircle mouse model assessed as reduction in HBsAg levels in mouse serum at 300 mg/kg, po bid treated for 3 weeks and measured up to 56 days; format: functional, organism-based
[44] = AUC (0 to 12 hrs) in C3H/J mouse at 300 mg/kg, po by LC-MS/MS analysis; format: ADME, organism-based; set-up: time < 12 hr, dose 300 mg/kg, route po; conditions: in vivo

With O=C(O)[C@@H]1CCN(c2ccc3c(=O)c4cccc(Cl)c4oc3c2)C1 the Tmax [1] was 0.25 h, the AUC/dose [2] was 1200 (ng·h/mL)/(mg/kg) and the Cmax/dose [3] was 200 ng/mL. The half-life [4] was 3.45 h, the Activity [5] was “Non-Toxic” and the half-life [6] was 1.82 h. The CLint scaled [7] was 51.9 mL/min/kg, the “f(Cave)” value [8] was 351 nM and the IC50 [9] was > 50000 nM. For the same compound, the “f(Cave)” value [10] was 178 nM, the solubility [11] was > 452 µg/mL and the Cmax [12] was 828 ng/mL. For the same compound, the AUC/dose [13] was 1510 (ng·h/mL)/(mg/kg), the Cmax/dose [14] was 166 ng/mL and the fCmax [15] was 3.452 µM. It also gave a Cmax [16] of 59900 ng/mL, a fCmax [17] of 1151 nM and an AUC(0-inf) [18] of 120000 ng·h/mL. The fCmin [19] was 62.2 nM, the AUC(0-inf) [20] was 11800 ng·h/mL and the Activity [21] was “Active”. It also gave a fCmax [22] of 1151 nM, a fCmin [23] of 20.7 nM and a Cmax/dose [24] of 322 ng/mL. For the same compound, the Activity [25] was “Active”, the Tmax [26] was 2.67 h and the AUC/dose [27] was 591 (ng·h/mL)/(mg/kg). The logD [28] was 1, the Cmax/dose [29] was 408 ng/mL and the “f(Cave)” value [30] was 1053 nM. For the same compound, the IC50 [31] was 580 nM, the AUC/dose [32] was 1042 ng·h/mL and the Papp [33] was 2.82 ×10⁻⁶ cm/s. For the same compound, the IC50 [34] was 1150 nM, the AUC(0-inf) [35] was 857 ng·h/mL and the Cmax [36] was 32200 ng/mL. For the same compound, the Activity [37] was “Active”, the Tmax [38] was 0.5 h and the Tmax [39] was 0.5 h. The fCmin [40] was 0.23 nM, the Cmax [41] was 8160 ng/mL and the half-life [42] was 3.46 h. The Activity [43] was “Active” and the AUC(0-t) at 12 h [44] was 453000 ng·h/mL.
